Test results reported in patent US8143307B2, “Benzothiophen-2-carbonylguanidine derivatives, preparation thereof, and pharmaceutical composition containing the same” (Korea Research Institute of Chemical Technology, priority 2004, dated 2012).
pIC50: −log10 of the molar value.

Tests used:
[1] = test system: isolated ischemic rat heart; assay: Cardioprotective effect in isolated ischemic rat heart model (Langendorff); settings: 10 μM, 30 min global ischemia, 30 min reperfusion
Description: Male rats (300 450 g, the Korea Research Institute of Chemical Technology, Experimental Animal Lab) were anesthetized by intraperitoneal injection with sodium pentobarbital at a dose of 100 mg/kg and were intravenously administered with heparine at a dose of 1000 U/kg, followed by the excision of the heart. In detail, a tracheotomy was performed and a tracheal cannula (PE 240) was inserted into the trachea for subsequent artificial ventilation with room air using a rodent ventilator. […] A catheter tip manometer connected to a latex balloon filled with a mixture of ethanol and distilled water (1:1 v/v) was inserted via an incision in the left atrium into the left ventricle, and the intraventricular pressure thereof transmitted to the latex balloon was measured isovolumetrically with a transducer and recorded on a recording system (Linearcorder mark 8 WR 3500) with the aid of an amplifier (Plugsys bridge amplifier). After stabilizing the heart for 15 min, the balloon volume was adjusted to create a left ventricular end-diastolic pressure (LVEDP) of 5 mmHg during the initial baseline period. The volume of the balloon was maintained until the end of the experiment. Baseline heart contraction function, spontaneous heart rate (HR) and coronary flow (CF) were determined from the left ventricular contraction interval. The left ventricular developed pressure (LVDP), which is regarded as an index of contractile function of the isolated heart, was calculated by subtracting left ventricular end-diastolic pressure (LVEDP) from left ventricular peak systolic pressure (LVSP). In contrast to the heart in the body, the Langendorff heart cannot be measured for cardiac output and thus, RPP (rate-pressure product), which is an important indirect indicator for cardiac performance, was calculated by multiplying heart rate (HR) by LVDP. Throughout the experiment, the temperature of the heart was maintained constant by […] in a 37° C. physiological solution to which 95% O2/5% CO2 was continuously supplied. The heart thus stabilized was perfursed for 10 min with a solution of the compounds of the invention or control drugs in DMSO (dimethylsulfoxide) diluted with HBS (final DMSO conc. 0.04%), or with the solvent only (a negative control; 0.04% DMSO) and then measured again for contractile function, heart rate (HR) and coronary flow (CF). The supply of perfusates was completely stopped for 30 min in order to induce global ischemia in the heart, followed by reperfusion for 30 min. The indices (LVDP, HR, LVEDP, and CF) were measured again. After the reperfusion, the total level of lactate dehydrogenase (LDH) in the reperfusates was measured using a kit and taken as an index of ischemic myocardial injury. A negative control group was treated with the solvent only while cariporide was used as a positive control.

Human NHE-1 = target: T1, Human NHE-1 (Homo sapiens, UniProt P19634); assay: Inhibitory effect on NHE-1 in PS120/NHE-1 cells (recovery from intracellular acidosis, BCECF fluorescence); assay type: cell-based; settings: human NHE-1 expressed PS120 cells; concentration at which recovery from intracellular acidosis was 50% inhibited
T1 construct: expressed in transfected cells; host or cells: CCL39-derived PS120 cells (PS120/NHE-1)
T1 sequence (P19634 whole entry): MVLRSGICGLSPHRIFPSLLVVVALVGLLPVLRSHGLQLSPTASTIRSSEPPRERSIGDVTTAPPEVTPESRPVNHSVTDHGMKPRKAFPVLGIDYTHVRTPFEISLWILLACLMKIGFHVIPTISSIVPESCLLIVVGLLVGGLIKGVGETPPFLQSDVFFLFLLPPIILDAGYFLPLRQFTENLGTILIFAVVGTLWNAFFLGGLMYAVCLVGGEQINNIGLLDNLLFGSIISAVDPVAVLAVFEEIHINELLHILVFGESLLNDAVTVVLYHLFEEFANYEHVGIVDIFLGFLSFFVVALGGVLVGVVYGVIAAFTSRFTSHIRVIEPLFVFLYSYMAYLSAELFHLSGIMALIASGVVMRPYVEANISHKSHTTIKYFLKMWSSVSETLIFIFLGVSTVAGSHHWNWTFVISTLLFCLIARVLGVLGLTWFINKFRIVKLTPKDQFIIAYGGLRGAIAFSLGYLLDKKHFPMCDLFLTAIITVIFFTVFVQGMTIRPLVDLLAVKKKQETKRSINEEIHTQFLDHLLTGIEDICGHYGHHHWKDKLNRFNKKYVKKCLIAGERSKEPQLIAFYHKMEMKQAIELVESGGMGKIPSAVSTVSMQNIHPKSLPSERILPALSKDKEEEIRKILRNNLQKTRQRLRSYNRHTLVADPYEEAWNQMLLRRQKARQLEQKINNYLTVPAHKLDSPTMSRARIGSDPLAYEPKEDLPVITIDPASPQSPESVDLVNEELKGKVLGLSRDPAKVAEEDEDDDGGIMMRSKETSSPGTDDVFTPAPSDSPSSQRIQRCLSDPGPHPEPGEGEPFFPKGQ
Description: The benzothiophen-2-carbonylguanidine derivatives of the present invention were examined for NHE-1 inhibitory effect in cells according to the following procedure.
Human NHE-1 was expressed in CCL39-derived PS120 cells. These human NHE-1 expressed cells were cultured in DMEM (Dulbecco's modified Eagle's medium) supplemented with 10% fetal bovine serum, 1% penicillin/streptomycin (100× solution), 1% L-glutamine (200 mM aqueous solution). The PS120/NHE-1 cells grown in 100 mm dishes were treated with trypsin at 80-90% confluency, followed by washing with PBS (phosphate buffer saline) once, and then once with an Na-free buffer (138.2 mM Choline chloride, 4.9 mM KCl, […]. 2H2O, 1.2 mM MgSO4.7H2O, 1.2 mM KH2PO4, 15 mM D-glucose, 20 mM HEPES, at pH 7.4). After centrifugation, the pellet was suspended in an Na-free buffer containing 20 mM NH4Cl and 10 μM BCECF-AM [2′,7′-bis(2-carboxyethyl)-5,6-carboxy-fluorescein acetoxymethyl ester] and incubated at 37° C. for 30 min in a CO2 incubator. After being harvested by centrifugation, the PS120/NHE-1 cells were washed once with an Na-free buffer to remove both NH4Cl and extracellular BCECF-AM, suspended at a density of 2.5×10^4 cells/10 μl and stored at 4° C. in a dark room until reuse. In each well of 96-well microplates, 180 μl of HBS (137 mM NaCl, 4.9 mM KCl, 1.5 mM CaCl2. 2H2O, 1.2 mM MgSO4.7H2O, 1.2 mM KH2PO4, 15 mM D-glucose, 20 mM HEPES, at pH 7.4) and 10 μl of DMSO or 10 μl of a solution of the compound (0.03˜10 μM) of the present invention in DMSO were placed and well mixed, after which 10 μl aliquots of the intracellular acidosis-induced PS120/NHE-1 cells were added thereto. 4 min after the cell addition, fluorescence (excitation: 485/444 nm, emission: 535 nm) was measured in the GEMINI-XS Microplate Spectrofluorometer (Molecular Devices). The fluorescence measured was converted into pH values using a high-K^+/nigericin technique. The cells in which intracellular acidosis was induced with NH4Cl prepulses, were recovered to normal pH values through the operation of NHE-1. The inhibitory effect of the compound against NHE-1 was evaluated as concentrations at which the recovery from the intracellular acidosis to a normal state was 50% inhibited (IC50 values), with cariporide used as a control.

[2] = test system: in vivo ischemic rat heart model; assay: Cardioprotective effect on in vivo ischemic rat heart model (coronary occlusion/reperfusion, infarct size); settings: 45 min occlusion, 90 min reperfusion
Description: The cardioprotective effect of the benzothiophen-2-carbonylguanidine derivatives according to the present invention in in vivo ischemic hearts was judged with regard to their antischemic effects (myocardiac infarction reduction) on rats as follows.
Each male rat (300˜450 g, the Korea Research Institute of Chemical Technology, Experimental Animal Lab) was anesthetized by intraperitoneal injection with sodium pentobarbital at a dose of 75 mg/kg. Tracheotomy was performed and a tube was inserted into the trachea for subsequent artificial ventilation with a stroke volume of 10 ml/kg and a respiratory rate of 60 breaths/min. The femoral vein and the femoral artery were cannulated for the administration of the compounds and for the measurement of blood pressures, respectively. Meanwhile, the body temperature of the rats, an important factor to influence experimental results in the ischemic myocardiac injury model, was maintained constant at 37° C. using a homeothermic blanket control unit, with a body temperature-monitoring probe inserted into the rectum. Subsequently, rats were continuously measured for mean arterial blood pressure and heart rate HR throughout the experimental time period using a Statham P23XL pressure transducer (Grass Ins., Mass., USA) and an ECG/RATE Coupler (Hugo Sachs Electronic, Germany), respectively, with all continuous changes thereof recorded by Graphtec Linearcorder WR 3310 (Hugo Sachs Electronic).
The left coronary artery was occluded according to Selye H.'s method. In detail, after the chest of each rat was partially opened by left thoracotomy, the middle finger of the left hand was pressed against the right side of the chest of the rat to thrust out the heart which was then slightly fixed with the forefinger and the thumb of the same hand. Then, immediately after the left anterior descending coronary artery (LAD) was sutured with a 5-0 silk ligature, the heart was repositioned back in the thoracic cavity with both ends of the suture positioned outside. The ends of the suture were threaded through a PE tube (PE100, 2.5 cm) and allowed to stand for 20 min for stabilization. Through the cannula inserted into the femoral vein, a vehicle or the compounds of the invention were administered and 30 min was needed for sufficient effects of the administered compounds. Cariporide was used as a control. The ends of the suture threaded through the PE tube were pulled taut with hemostatic forceps to vertically press the PE tube against the coronary artery. After occlusion for 45 min, the hemostatic forceps were removed and reperfusion was conducted for 90 min.
The coronary artery was reoccluded in the same manner as described above, followed by the intravenous injection of 2 ml of 1% Evans blue. The intravenous injection of an excess of pentobarbital killed the rats, from which the hearts were then excised. The left ventricle was removed alone from the isolated heart and transected from the cardiac apex into 5 or 6 slices. Each slice was weighed. The image of each of the heart slices was captured using a Hi-scope, a compact vision system, and analyzed for blue-stained normal areas and non-stained areas with an image analyzing program (Image Pro Plus). In each slice, the area at risk (AAR) was calculated by multiplying the ratio of the non-stained area to the total area of the slice with the weight of the slice. Sum of the individual area at risk (AAR) for each slice was divided by the total weight of the left ventricle to obtain AAR (%) according to the following mathmatical formula 1.
Separately, the heat slices were incubated in 1%. 2,3,5-triphenyltetrazolium chloride (TTC) phosphate buffer (pH 7.4), 37° C., for 15 min and fixed in 10% formalin for 20˜24 hours. In the normal area of the tissue, 2,3,5-triphenyltetrazolium chloride was reduced by the myocardial dehydrogenase in the presence of the cofactor NADH to form formazan dye, which appeared as a brick-red color. […]

CS(=O)(=O)O.NC(N)=NC(=O)c1cc2c(C(F)(F)F)cccc2s1 [Example 43, (4-Trifluoromethylbenzothiophene-2-Carbonyl)Guanidine Methanesulfonate]
LDH (free LDH level upon reperfusion) [1]: 5.2 u/g
LVEDP (left ventricular end-diastolic pressure) [1]: 5.8 mmHg
RPP (rate-pressure product (LVDP × HR) % relative to the value before ischemia induction) [1]: 80.6%
pIC50 (Human NHE-1): 6.40
Myocardiac infarction rate (IS/AAR, %) ([2]; 0.1 mg/kg intravenous): 44.8%

CCc1cccc2sc(C(=O)N=C(N)N)cc12.CS(=O)(=O)O [Example 37, (4-Ethylbenzothiophene-2-Carbonyl)Guanidine Methanesulfonate]
LDH (free LDH level upon reperfusion) [1]: 7.1 u/g
LVEDP (left ventricular end-diastolic pressure) [1]: 37.7 mmHg
RPP (rate-pressure product (LVDP × HR) % relative to the value before ischemia induction) [1]: 43.4%
pIC50 (Human NHE-1): 6.57
Myocardiac infarction rate (IS/AAR, %) ([2]; 0.1 mg/kg intravenous): 51.6%

CC(C)c1ccc(C(=O)NC(=N)N)cc1S(C)(=O)=O [Cariporide, cariporide, reference compound]
LDH (free LDH level upon reperfusion) [1]: 19.3 u/g
LVEDP (left ventricular end-diastolic pressure) [1]: 22.4 mmHg
RPP (rate-pressure product (LVDP × HR) % relative to the value before ischemia induction) [1]: 69.8%
pIC50 (Human NHE-1): 6.17
Myocardiac infarction rate (IS/AAR, %) ([2]; 0.1 mg/kg intravenous): 40.5%
Myocardiac infarction rate (IS/AAR, %) ([2]; 0.3 mg/kg intravenous): 37.9%
